Experimental data published in the supplement of paper PMC11208160.

Experiment: recombinant barcode read abundance after kanamycin selection (control-corrected) (log10(CPM+1)); higher = more efficient recombination; sequences stand for … in AGTGCAGAGAAAATCGGCCAGTTTTCTCTGCCTGCAGTCCGCATGCCGT…ATTTATGCAGCGGACTGCCTTTCTCCCAAAGTGATAAACCGGACAGTATCATGGACCGGTTTTCCCGGTAATCCGTATTTGCAAGGTTGGTTTCACT; site = the 11-nt target
Procedure, shortened: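 Pooled E. coli screen pairing targets with IS621 bridge RNA target-binding loops. Each oligo (promoter, target, barcode, J23119-driven first 104 bridge RNA bases) was Gibson-cloned into a vector with the remaining 73 bp and T7-inducible recombinase, then co-electroporated with a donor plasmid. Two replicates each were plated on chloramphenicol/ampicillin LB agar (control) or chloramphenicol/ampicillin/kanamycin with 0.1 mM IPTG. Recombination efficiency is recombinant-junction barcode counts as CPM, averaged, control-corrected, reported as log10(CPM+1).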

Sequence	recombinant barcode read abundance (log10)
TCGCGACTGTGGGTTCTAACCTGTTGCCGAG [TCGCGACCTCG_LTGcore_TG_RTGcore_CT] (site TCGCGACCTCG) (LTG core: TG, RTG core: CT)	0.302
TCGCGACTTTGGGTTCTAACCTGTTGCCGAG [TCGCGACCTCG_LTGcore_TT_RTGcore_CT] (site TCGCGACCTCG) (LTG core: TT, RTG core: CT)	0.282
TCTACCCAGTGGGTTCTAACCTGTTGCTGCT [TCTACCCCTCA_LTGcore_AG_RTGcore_AG] (site TCTACCCCTCA) (LTG core: AG, RTG core: AG)	0.24
TCTACCCCCTGGGTTCTAACCTGTTGCTGAG [TCTACCCCTCA_LTGcore_CC_RTGcore_CT] (site TCTACCCCTCA) (LTG core: CC, RTG core: CT)	0.0931
TCTACCCCTTGGGTTCTAACCTGTTGCTGAG [TCTACCCCTCA_LTGcore_CT_RTGcore_CT] (site TCTACCCCTCA) (LTG core: CT, RTG core: CT)	0.783
TCTACCCCTTGGGTTCTAACCTGTTGCTGAT [TCTACCCCTCA_LTGcore_CT_RTGcore_AT] (site TCTACCCCTCA) (LTG core: CT, RTG core: AT)	0.131
TCTACCCCTTGGGTTCTAACCTGTTGCTGGA [TCTACCCCTCA_LTGcore_CT_RTGcore_TC] (site TCTACCCCTCA) (LTG core: CT, RTG core: TC)	0.0313
TCTACCCCTTGGGTTCTAACCTGTTGCTGTA [TCTACCCCTCA_LTGcore_CT_RTGcore_TA] (site TCTACCCCTCA) (LTG core: CT, RTG core: TA)	0.124
TCTACCCGCTGGGTTCTAACCTGTTGCTGGC [TCTACCCCTCA_LTGcore_GC_RTGcore_GC] (site TCTACCCCTCA) (LTG core: GC, RTG core: GC)	0.124
TCTACCCGTTGGGTTCTAACCTGTTGCTGAC [TCTACCCCTCA_LTGcore_GT_RTGcore_GT] (site TCTACCCCTCA) (LTG core: GT, RTG core: GT)	0.0436
TGATACCAATGGGTTCTAACCTGTTGCGTTT [TGATACCCTAC_LTGcore_AA_RTGcore_AA] (site TGATACCCTAC) (LTG core: AA, RTG core: AA)	0.0446
TGATACCAGTGGGTTCTAACCTGTTGCGTCT [TGATACCCTAC_LTGcore_AG_RTGcore_AG] (site TGATACCCTAC) (LTG core: AG, RTG core: AG)	0.256
TGATACCCATGGGTTCTAACCTGTTGCGTTG [TGATACCCTAC_LTGcore_CA_RTGcore_CA] (site TGATACCCTAC) (LTG core: CA, RTG core: CA)	0.0326
TGATACCCTTGGGTTCTAACCTGTTGCGTAC [TGATACCCTAC_LTGcore_CT_RTGcore_GT] (site TGATACCCTAC) (LTG core: CT, RTG core: GT)	0.08
TGATACCCTTGGGTTCTAACCTGTTGCGTAG [TGATACCCTAC_LTGcore_CT_RTGcore_CT] (site TGATACCCTAC) (LTG core: CT, RTG core: CT)	2.73
TGATACCCTTGGGTTCTAACCTGTTGCGTCA [TGATACCCTAC_LTGcore_CT_RTGcore_TG] (site TGATACCCTAC) (LTG core: CT, RTG core: TG)	0.796
TGATACCCTTGGGTTCTAACCTGTTGCGTTA [TGATACCCTAC_LTGcore_CT_RTGcore_TA] (site TGATACCCTAC) (LTG core: CT, RTG core: TA)	0.0153
TGATACCGATGGGTTCTAACCTGTTGCGTTC [TGATACCCTAC_LTGcore_GA_RTGcore_GA] (site TGATACCCTAC) (LTG core: GA, RTG core: GA)	0.269
TGATACCGGTGGGTTCTAACCTGTTGCGTAG [TGATACCCTAC_LTGcore_GG_RTGcore_CT] (site TGATACCCTAC) (LTG core: GG, RTG core: CT)	0.108

Sequence	recombinant barcode read abundance (log10)
TGATACCTGTGGGTTCTAACCTGTTGCGTCA [TGATACCCTAC_LTGcore_TG_RTGcore_TG] (site TGATACCCTAC) (LTG core: TG, RTG core: TG)	0.256
TGTATTCAGTGGGTTCTAACCTGTTGCCTCT [TGTATTCCTAG_LTGcore_AG_RTGcore_AG] (site TGTATTCCTAG) (LTG core: AG, RTG core: AG)	0.00767
TGTATTCATTGGGTTCTAACCTGTTGCCTAG [TGTATTCCTAG_LTGcore_AT_RTGcore_CT] (site TGTATTCCTAG) (LTG core: AT, RTG core: CT)	0.0853
TGTATTCCATGGGTTCTAACCTGTTGCCTAG [TGTATTCCTAG_LTGcore_CA_RTGcore_CT] (site TGTATTCCTAG) (LTG core: CA, RTG core: CT)	0.0466
TGTATTCCTTGGGTTCTAACCTGTTGCCTAG [TGTATTCCTAG_LTGcore_CT_RTGcore_CT] (site TGTATTCCTAG) (LTG core: CT, RTG core: CT)	0.129
TGTATTCCTTGGGTTCTAACCTGTTGCCTTA [TGTATTCCTAG_LTGcore_CT_RTGcore_TA] (site TGTATTCCTAG) (LTG core: CT, RTG core: TA)	0.0748
TGTATTCGATGGGTTCTAACCTGTTGCCTAG [TGTATTCCTAG_LTGcore_GA_RTGcore_CT] (site TGTATTCCTAG) (LTG core: GA, RTG core: CT)	0.0114
TGTATTCGTTGGGTTCTAACCTGTTGCCTAG [TGTATTCCTAG_LTGcore_GT_RTGcore_CT] (site TGTATTCCTAG) (LTG core: GT, RTG core: CT)	0.0893
TTATAAAACTGGGTTCTAACCTGTTGCCTGT [TTATAAACTAG_LTGcore_AC_RTGcore_AC] (site TTATAAACTAG) (LTG core: AC, RTG core: AC)	0.0452
TTATAAAAGTGGGTTCTAACCTGTTGCCTCT [TTATAAACTAG_LTGcore_AG_RTGcore_AG] (site TTATAAACTAG) (LTG core: AG, RTG core: AG)	0.0267
TTATAAACGTGGGTTCTAACCTGTTGCCTCG [TTATAAACTAG_LTGcore_CG_RTGcore_CG] (site TTATAAACTAG) (LTG core: CG, RTG core: CG)	0.193
TTATAAACTTGGGTTCTAACCTGTTGCCTCA [TTATAAACTAG_LTGcore_CT_RTGcore_TG] (site TTATAAACTAG) (LTG core: CT, RTG core: TG)	0.402
TTATAAACTTGGGTTCTAACCTGTTGCCTCT [TTATAAACTAG_LTGcore_CT_RTGcore_AG] (site TTATAAACTAG) (LTG core: CT, RTG core: AG)	0.0489
TTATAAACTTGGGTTCTAACCTGTTGCCTGT [TTATAAACTAG_LTGcore_CT_RTGcore_AC] (site TTATAAACTAG) (LTG core: CT, RTG core: AC)	0.0449
TTATAAACTTGGGTTCTAACCTGTTGCCTTA [TTATAAACTAG_LTGcore_CT_RTGcore_TA] (site TTATAAACTAG) (LTG core: CT, RTG core: TA)	0.076
TTATAAAGCTGGGTTCTAACCTGTTGCCTGC [TTATAAACTAG_LTGcore_GC_RTGcore_GC] (site TTATAAACTAG) (LTG core: GC, RTG core: GC)	0
TTATAAATCTGGGTTCTAACCTGTTGCCTAG [TTATAAACTAG_LTGcore_TC_RTGcore_CT] (site TTATAAACTAG) (LTG core: TC, RTG core: CT)	0.235
TTATAAATTTGGGTTCTAACCTGTTGCCTAA [TTATAAACTAG_LTGcore_TT_RTGcore_TT] (site TTATAAACTAG) (LTG core: TT, RTG core: TT)	0.0515
